# Biological target: human FXa (Homo sapiens, UniProt P00742)
# Test: Human activated blood coagulation factor X (FXa) inhibitory action
# Assay type: biochemical
# Settings: concentration inhibiting 50% of the FXa action; substrate S-2765, 37° C., absorbance at 405 nm
# Description: (1) Human Activated Blood Coagulation Factor X (FXa) Inhibitory Action
# Method of experiment: 225 μl of a 0.05 M Tris hydrochloride buffer (pH 8.3) containing 0.145 M sodium chloride and 2 mM calcium chloride, 5 μl of a sample (the test compound is dissolved in dimethylsulfoxide), and 10 μl of human FXa (0.3 unit/ml) were added to a 96-well microplate to react at 37° C. for about 10 minutes, and then 10 μl of a substrate (3 mM, S-2765) was added thereto to react at 37° C. for about 10 minutes. Subsequently, 25 μl of a 50% aqueous acetic acid solution was added to terminate the reaction, and then the change in the absorbance at 405 nm was measured with a spectrophotometer to calculate the concentration inhibiting 50% of the FXa action (IC50).
# Sequence of human FXa (P00742 235-488 limits assumed): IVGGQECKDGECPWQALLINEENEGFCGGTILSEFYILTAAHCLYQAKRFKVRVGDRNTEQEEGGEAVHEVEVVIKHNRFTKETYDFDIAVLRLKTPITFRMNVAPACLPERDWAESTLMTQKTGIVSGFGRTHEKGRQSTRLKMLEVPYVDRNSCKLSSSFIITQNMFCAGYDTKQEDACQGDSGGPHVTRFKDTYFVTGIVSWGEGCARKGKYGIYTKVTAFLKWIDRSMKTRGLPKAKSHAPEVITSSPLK
# Sequence of human FXa (P00742 41-179 partner limits assumed): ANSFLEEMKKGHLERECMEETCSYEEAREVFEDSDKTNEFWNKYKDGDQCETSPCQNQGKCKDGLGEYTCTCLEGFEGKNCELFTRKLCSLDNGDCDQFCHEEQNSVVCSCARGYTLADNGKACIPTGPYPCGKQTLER
row,Structure (SMILES),IC50 [nM]
1,"COC(C)(C)C(NC(=O)Nc1ccc(Cl)cc1)C(=O)N1CCN(N2Cc3cnc(C)n3C2=O)CC1 (stereo not shown) [Example 74, N-(4-chlorophenyl)-N′-(2-methoxy-2-methyl-1-((4-(5-methyl-3-oxo-1H-imidazo[1,5-c]imidazol-2(3H)-yl)-1-piperazinyl)carbonyl)propyl)urea]",50
2,"CSC(C)(C)[C@@H](NC(=O)Nc1ccc(Cl)cc1)C(=O)N1CCN(N2Cc3cnc(C)n3C2=O)CC1 [Example 40, N—(4-chlorophenyl)—N′—((1S)-2-methyl-1-((4-(5-methyl-3-oxo-1H-imidazo[1,5-c]imidazol-2(3H)-yl)-1-piperazinyl)carbonyl)-2-(methylthio)propyl)urea]",10
3,"Cc1ncc2n1C(=O)N(N1CCN(C(=O)[C@H](NC(=O)Nc3ccc(Cl)cc3)C(C)(C)C)CC1)C2 [Example 20, N—(4-chlorophenyl)—N′—((1R)-2,2-dimethyl-1-((4-(5-methyl-3-oxo-1H-imidazo[1,5-c]imidazol-2(3H)-yl)-1-piperazinyl)carbonyl)propyl)urea]",18
4,"CCC(O)(CC)C(NC(=O)Nc1ccc(Cl)cc1)C(=O)N1CCN(N2Cc3cnc(C)n3C2=O)CC1 (stereo not shown) [Example 37, N—(4-chlorophenyl)—N ′—(2-ethyl-2-hydroxy-1-((4-(5-methyl-3-oxo-1H-imidazo[1,5-c]imidazol-2(3H)-yl)-1-piperazinyl)carbonyl)butyl)urea]",26

# From US7820673B2, “Urea derivative, process for producing the same, and use” (Takeda Pharmaceutical Company Limited, priority 2003, dated 2010)
